This passage reports EC50 results from ChEMBL document CHEMBL1154198, “Chemical genetics of Plasmodium falciparum” (Nature, 2010).

For experiment [1], the system named is Plasmodium falciparum. The experiment can be described thus: ST_JUDE: Plasmodium falciparum 3D7 EC50 (uM) as measured by SYBR green dye. The class given is functional, organism-based.
For experiment [2], the system named is Plasmodium falciparum. The experiment can be described thus: ST_JUDE: Plasmodium falciparum K1 EC50 (uM) as measured by SYBR green dye. It counts as functional, organism-based.

One may read the EC50 as the concentration giving half of the maximal effect. A lower EC50 goes with greater potency. Consider `Cc1nc2ccc(OCC(C)C)cc2c(O)c1CN(C)C1CCN(C)CC1`, for which the EC50 in the experiment with Plasmodium falciparum [1] and in the experiment on Plasmodium falciparum [2] was > 15 µM each time.
On to `CCN1CCN(Cc2c(O)ccc3c(=O)c(Oc4cc(C)cc(C)c4)c(C(F)(F)F)oc23)CC1`, for which the values for the EC50 in the experiment on Plasmodium falciparum [1] and in the experiment on Plasmodium falciparum [2] were 0.514 µM and 0.204 µM, respectively.
For `Cc1cccc(C(=O)NCc2nnc(S)n2-c2cccc(C(F)(F)F)c2)c1`, in that order: > 15 µM and > 15 µM.
For the molecule `CCc1cccc2c(C#N)cn(CCOc3ccccc3F)c12`, the 50% effective concentration (EC50) with Plasmodium falciparum [1] turned out to be 1.26 µM; in the experiment with Plasmodium falciparum [2] it was 0.973 µM.
For `COc1cc(/C=C2/C(=O)NC(=O)N(c3ccc(Cl)cc3)C2=O)cc(Br)c1OC` the same measures were > 15 µM and > 15 µM.
For `COc1ccc(NC2=C/C(=N/S(=O)(=O)c3ccc(C(C)C)cc3)c3ccccc3C2=O)cc1`, in that order: 0.499 µM and 0.458 µM.
On to `COC(=O)c1ccc(Nc2nc(NCc3ccco3)c3ccccc3n2)cc1`, for which the values for the EC50 in the experiment with Plasmodium falciparum [1] and in the experiment with Plasmodium falciparum [2] were 4.89 µM and 8.54 µM, respectively.
For `Oc1c(CN2CCCCC2)cc(Br)c2cccnc12`, in that order: 3.42 µM and 2.32 µM.
Turning to `Cc1c(Cl)ccc2c(C(=O)Nc3ccc(S(=O)(=O)N4CCOCC4)cc3)cc(-c3cccnc3)nc12`, the EC50 with Plasmodium falciparum [1] was 1.22 µM; with Plasmodium falciparum [2], > 15 µM.
In the case of `CCOC(=O)c1cnc2c(C(F)(F)F)cccc2c1Nc1cc(C)ccc1O`, the EC50 with Plasmodium falciparum [1] is 2.53 µM; with Plasmodium falciparum [2], 3.09 µM.
For `CC(=O)N(C1=C(N2CCCCC2)C(=O)c2ccccc2C1=O)c1ccc(C)cc1`, in that order: 7.46 µM and 4.48 µM.
For `CCCCCn1c(=O)c2c(nc3n(-c4ccccc4OCC)c(C)cn23)n(C)c1=O` the same measures were > 15 µM and > 15 µM.
Turning to `COc1ccc(Nc2cc(C)nc(Nc3ccc(NS(=O)(=O)c4ccc(Cl)cc4)cc3)n2)cc1`, the figures for the EC50 in the experiment on Plasmodium falciparum [1] and in the experiment on Plasmodium falciparum [2] were 0.564 µM and > 15 µM, respectively.
On to `CC1CC(C)CN(C(=O)c2ccc(Cl)cc2Cl)C1` (stereo not given), for which the EC50 was 1.32 µM with Plasmodium falciparum [1] and > 15 µM with Plasmodium falciparum [2].
For the molecule `O=C(Nc1ccc(-c2nc3ccccc3[nH]2)cc1)[C@H](Cc1ccccc1)N1Cc2ccccc2C1=O`, the EC50 in the experiment with Plasmodium falciparum [1] is 2.56 µM; with Plasmodium falciparum [2], > 15 µM.
`Clc1ccccc1Nc1nc(NCc2ccccc2)c2ccccc2n1`: the EC50 came to 1.54 µM in the experiment with Plasmodium falciparum [1] and 4.17 µM with Plasmodium falciparum [2].
For `O=C(Nc1ccc(-c2nc3cc(NC(=O)c4ccc(Br)o4)ccc3[nH]2)cc1)c1ccc(Br)o1`, in that order: 2.59 µM and 3.23 µM.
As to `COc1ccccc1-c1nnc(NC(=O)c2cccc(SC)c2)o1`, the EC50 with Plasmodium falciparum [1] and in the experiment with Plasmodium falciparum [2] was > 15 µM each time.
Consider `CC(Sc1ccc(Cl)cc1)C(=O)Nc1ccc(Br)cc1F` (stereo not given), for which the EC50 in the experiment on Plasmodium falciparum [1] and in the experiment on Plasmodium falciparum [2] was > 15 µM each time.
Regarding `CC[n+]1cccc2cc(OC)ccc21`, the EC50 in the experiment on Plasmodium falciparum [1] and with Plasmodium falciparum [2] was > 15 µM in each case.
For the molecule `CCOc1ccc2c(c1)C(=NNC(=N)N)c1cc(OCC)ccc1-2`, the values for the EC50 in the experiment with Plasmodium falciparum [1] and with Plasmodium falciparum [2] were 0.398 µM and 6.96 µM, respectively.
For `CCCC(=O)NC(c1ccccc1Cl)c1cc(Cl)c2cccnc2c1O` (stereo not given) the same measures were > 15 µM and > 15 µM.
For `C[n+]1ccccc1-c1nc2ccccc2s1` the same measures were > 15 µM and 5.81 µM.
For `CCCCc1ccc2nc(C)c(CN3CCC(C)CC3)c(O)c2c1`, in that order: > 15 µM and > 15 µM.
As to `CCOc1ccc(NC(=O)C2c3ccccc3C(=O)N(C3CCCC3)C2c2cccs2)cc1` (stereo not given), the EC50 in the experiment on Plasmodium falciparum [1] stood at 2.95 µM; in the experiment with Plasmodium falciparum [2] it was 3.88 µM.
For `O=C(Nc1ccc(Cl)cc1)Nc1ccc(F)c(Cl)c1`, in that order: 3.72 µM and 3.57 µM.
As to `CCOC(=O)c1oc2ccccc2c1NC(=O)c1ccc(C)c([N+](=O)[O-])c1`, the EC50 in the experiment on Plasmodium falciparum [1] and with Plasmodium falciparum [2] was > 15 µM throughout.
Turning to `Cc1ccc(S(=O)(=O)NCC(c2cccnc2)N2CCN(c3ccc(F)cc3)CC2)cc1` (stereo not given), the 50% effective concentration (EC50) in the experiment with Plasmodium falciparum [1] is > 15 µM; with Plasmodium falciparum [2], 9.43 µM.
For `Cc1c(C=O)c2ccccc2n1CC(=O)Nc1cccc(I)c1`, in that order: 3 µM and 3.03 µM.
For `CCOc1ccc(N(C(C)=O)C2=C(N3CCCCC3)C(=O)c3ccccc3C2=O)cc1` the same measures were 0.542 µM and > 15 µM.
Regarding `CCCCCCCCCn1ccc(=N)cc1`, the figures for the EC50 in the experiment with Plasmodium falciparum [1] and in the experiment with Plasmodium falciparum [2] were 0.835 µM and 0.465 µM, respectively.
As for `Cc1ccc2c(c1)c1c(n2CC(O)Cn2cnc(-c3ccccc3)c2-c2ccccc2)CCCC1` (stereo not given), the EC50 in the experiment with Plasmodium falciparum [1] stood at 2.02 µM; with Plasmodium falciparum [2] it was 1.08 µM.
For `CCCCCOCC1CC2(CC(C)(c3csc(Nc4ccccc4Cl)n3)OC2=O)C(=O)O1` (stereo not given), in that order: > 15 µM and > 15 µM.
For `Cc1nc2sc(C(c3ccc(Cl)cc3)N3CCC4(CC3)OCCO4)c(O)n2n1` (stereo not given), in that order: > 15 µM and > 15 µM.
Consider `COc1ccc(Cl)cc1NC(=O)CSc1nc(-c2ccccc2Cl)ns1`, for which the values for the EC50 in the experiment on Plasmodium falciparum [1] and in the experiment with Plasmodium falciparum [2] were 1.43 µM and 2.66 µM, respectively.
For `CCCc1cc(O)nc(Nc2ccc(Cl)c(C(F)(F)F)c2)n1` the same measures were 3.09 µM and 2.84 µM.
For `CCOC(=O)C1CCN(C(=O)CN(Cc2ccc(Cl)cc2)S(=O)(=O)c2ccc(C)cc2)CC1`, in that order: > 15 µM and 2.18 µM.
For `CCc1ccccc1NC(=O)c1csc2c1CCC(C)C2` (stereo not given) the same measures were > 15 µM and > 15 µM.
On to `O=S(=O)(Nc1ccc(-c2ccc(N3CCCC3)nn2)cc1)c1ccc(Br)cc1`, for which the EC50 in the experiment with Plasmodium falciparum [1] and with Plasmodium falciparum [2] was > 15 µM in each case.
On to `O=C(Nc1cccc(Br)c1)C1(c2ccccc2)CC1(Cl)Cl` (stereo not given), for which the EC50 in the experiment with Plasmodium falciparum [1] was 4.43 µM; in the experiment with Plasmodium falciparum [2], 3.11 µM.
For `CCN(CC)CC/N=c1\cc(-c2ccc(OC)c(OC)c2)oc2ccc(Cl)cc12.[O-][Cl+3]([O-])([O-])O` the same measures were 0.543 µM and 5.14 µM.
For `O=C(CCNc1ccc(Oc2ccccc2)cc1)c1ccco1`, in that order: > 15 µM and > 15 µM.
For `CN1CCN(c2nc(Nc3ccc(F)cc3)c3cnn(-c4ccccc4)c3n2)CC1`, in that order: 1.49 µM and 4.27 µM.
As to `Cc1cccc(NC(c2ccc(F)cc2)c2ccc3cccnc3c2O)n1` (stereo not given), the EC50 is 1.51 µM with Plasmodium falciparum [1] and 4.17 µM in the experiment on Plasmodium falciparum [2].
For `Cc1cc(N2CCN(C)CC2)nc2ccc(NC(=O)/C=C/c3ccccc3OC(C)C)cc12`, in that order: 3.36 µM and 5.57 µM.
For `CC(Cc1ccccc1)NC1=NS(=O)(=O)c2cc([N+](=O)[O-])ccc21` (stereo not given) the same measures were 1.58 µM and > 15 µM.
On to `C[n+]1ccccc1/C=C1\Sc2ccccc2N1CCO`, for which the results for the EC50 with Plasmodium falciparum [1] and in the experiment on Plasmodium falciparum [2] were 5.49 µM and 3.1 µM, respectively.
With `COc1ccc(C)cc1S(=O)(=O)Nc1ccc(Nc2nc(C)cc(N3CCCC3)n2)cc1`, the EC50 was 0.759 µM in the experiment on Plasmodium falciparum [1] and > 15 µM with Plasmodium falciparum [2].
For `CCCOc1cc(S(=O)(=O)n2ccnc2)ccc1Cl` the same measures were > 15 µM and > 15 µM.
For `CCCCc1ccc(NC(=O)Cc2csc(NC(=O)c3cc(OC)cc(OC)c3)n2)cc1` the same measures were > 15 µM and > 15 µM.
For `CC1(C)CC(=O)C2=C(C1)OC(N)=C(C#N)C2c1ccc(F)cc1F` (stereo not given) the same measures were > 15 µM and > 15 µM.
With `COc1ccc(Nc2cc(C)nc(Nc3ccc(NS(=O)(=O)c4cccc(F)c4)cc3)n2)cc1`, the EC50 turned out to be 2.05 µM in the experiment on Plasmodium falciparum [1] and 7.31 µM in the experiment on Plasmodium falciparum [2].
For `CCOC(=O)c1cc(NC(=O)CSc2nc3ccccc3[nH]2)ccc1Cl`, in that order: 2.17 µM and 3.22 µM.
For `COc1ccc(C(=O)NC(Nc2ccc(Cl)cc2)C(Cl)(Cl)Cl)cc1OC` (stereo not given) the same measures were 1.53 µM and 1.86 µM.
For `CCC(=O)Oc1cccc2ccc(/C=C/c3cc4c(cc3Cl)OCO4)nc12`, in that order: > 15 µM and > 15 µM.
As for `CCC(=O)NC(c1ccccc1OC)c1ccc2cccnc2c1O` (stereo not given), the values for the EC50 with Plasmodium falciparum [1] and in the experiment with Plasmodium falciparum [2] were 2.27 µM and 4.28 µM, respectively.
For `CCOC(=O)c1cnc2c(C)cc(C)cc2c1NCc1cccnc1` the same measures were 4.77 µM and 6.18 µM.
For `Cc1ccccc1Nc1nc(NCc2ccco2)c2ccccc2n1` the same measures were 3.55 µM and > 15 µM.
For `COc1ccc(OC)c(NC(=O)C2c3ccccc3C(=O)N(CC(C)C)C2c2cccs2)c1` (stereo not given) the same measures were 0.503 µM and 0.612 µM.
`CCC1CCCCN1CCCNC(=O)c1ccc2c(c1)sc1nc(-c3ccc(F)cc3)cn12` (stereo not given): the EC50 in the experiment on Plasmodium falciparum [1] was 0.463 µM; in the experiment on Plasmodium falciparum [2], 1.3 µM.
For `C[n+]1ccc(/C=C/c2ccc3c(c2)OCO3)cc1`, in that order: 3.47 µM and 2.39 µM.
As to `CCc1cccc(NC(=O)C2c3ccccc3C(=O)N(CCOC)C2c2cccs2)c1` (stereo not given), the EC50 in the experiment with Plasmodium falciparum [1] stood at 3.81 µM; in the experiment on Plasmodium falciparum [2] it was 4.14 µM.
`COc1cc(CNCCCN(C)C)ccc1OCc1ccc(F)cc1Cl`: the values for the EC50 in the experiment on Plasmodium falciparum [1] and in the experiment on Plasmodium falciparum [2] were 1.59 µM and 6.63 µM, respectively.
For `CCN(CC)CCOc1ccc2c(c1)C(=NO)c1cc(OCCN(CC)CC)ccc1-2` the same measures were 1.49 µM and 2.27 µM.
As to `CCCCOc1ccc(S(=O)(=O)Nc2ccc(Nc3nc(C)cc(N(C)C)n3)cc2)cc1`, the EC50 in the experiment on Plasmodium falciparum [1] was 1.66 µM; in the experiment on Plasmodium falciparum [2], > 15 µM.
For `CCCN1C(=O)c2[nH]nc(-c3c(C)cc(C)cc3O)c2C1c1ccc(OC)c(OC)c1` (stereo not given) the same measures were > 15 µM and > 15 µM.
For `CCCOc1cccc(C2c3c(-c4ccccc4O)n[nH]c3C(=O)N2CCCOCC)c1` (stereo not given), in that order: > 15 µM and 7.84 µM.
For `C=CCN1C(=O)c2[nH]nc(-c3c(C)cc(C)cc3O)c2C1c1cccc(OCC)c1` (stereo not given), in that order: 3.52 µM and 2.83 µM.
Turning to `Cc1ccc(S(=O)(=O)Nc2ccc(Nc3nc(C)cc(N4CCCC4)n3)cc2)cc1`, the EC50 with Plasmodium falciparum [1] was 0.919 µM; with Plasmodium falciparum [2], 7.18 µM.
For `Cc1onc(-c2ccccc2Cl)c1C(=O)Nc1cc(Cl)ccc1Cl`, in that order: > 15 µM and > 15 µM.
